Reference: PubChem BioAssay (NCI)
Where “and” joins values, the source holds several entries; their conditions need not be identical. Equal entries are not always repeated.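 Assay format: 96-well plates, 48-hour exposure. GI50 marks 50% less growth. Definition used: TGI = concentration required for complete inhibition of growth.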

Columns and labels:
Test in all cases: inhibition of tumour cell growth, NCI panel, 48 h
SN12C renal = test system: SN12C renal
SK-OV-3 ovarian = test system: SK-OV-3 ovarian
UO-31 renal = test system: UO-31 renal
SK-MEL-2 melanoma = test system: SK-MEL-2 melanoma
SF-268 CNS = test system: SF-268 CNS
HCT-15 colon = test system: HCT-15 colon
MDA-MB-231 breast = test system: MDA-MB-231 breast
MCF7 breast = test system: MCF7 breast

SMILES	GI50 (SN12C renal)	TGI (SN12C renal)	GI50 (SK-OV-3 ovarian)	TGI (SK-OV-3 ovarian)	GI50 (UO-31 renal)	TGI (UO-31 renal)	GI50 (SK-MEL-2 melanoma)	TGI (SK-MEL-2 melanoma)	GI50 (SF-268 CNS)	TGI (SF-268 CNS)	GI50 (HCT-15 colon)	TGI (HCT-15 colon)	TGI (MDA-MB-231 breast)	TGI (MCF7 breast)	GI50 (MDA-MB-231 breast)	GI50 (MCF7 breast)
O=C1c2c(O)cc(O)cc2OC(c2ccc(O)cc2O)C1O (configuration not stated)	> 100 µM	> 100 µM	> 100 µM	> 100 µM	> 100 µM	> 100 µM	> 100 µM	> 100 µM	> 100 µM	> 100 µM	> 100 µM	> 100 µM	> 100 µM	> 100 µM	–	–
CS(=O)(=O)CCNCc1ccc(-c2ccc3ncnc(Nc4ccc(OCc5ccccc5)c(Cl)c4)c3c2)o1	11.9 µM	> 25 µM	0.0416 µM	> 8.58 µM	1.64 µM	7.38 µM	4.62 µM	9.71 µM	6.52 µM	> 25 µM	3.55 µM	10 µM	9.31 µM	> 13.8 µM	4.3 µM	5.06 µM
O=C(O)c1ccc2c(c1)nc(Nc1cccc(Cl)c1)c1ccncc12	3.88 µM and 3.71 µM	> 100 µM	2.98 µM and 2.42 µM	11.6 µM and 7.52 µM	3.79 µM and 2.86 µM	14 µM and > 10 µM	2.4 µM and 1.86 µM	7.11 µM and 5.59 µM	3.52 µM and 3.85 µM	> 77.4 µM	3.12 µM and 2.92 µM	21.7 µM and > 10 µM	34.2 µM and > 10 µM	> 100 µM	4.18 µM and 3.57 µM	2.22 µM and 2.57 µM
CCc1nc(N)nc(N)c1-c1ccc(NCCc2ccccc2)c([N+](=O)[O-])c1	–	> 71.3 µM	–	> 74.6 µM	–	> 51.4 µM	–	36.7 µM	–	> 62.5 µM	–	> 57.5 µM	> 88.9 µM	33.6 µM	–	–
CN(C[C@@H]1COCCO1)S(=O)(=O)Nc1ccc2ccc3ncc(-c4cnn(C)c4)cc3c(=O)c2c1	3.53 µM	> 100 µM	3.04 µM	> 100 µM	1.95 µM	> 100 µM	3.12 µM	> 29.4 µM	4.26 µM	> 100 µM	3.64 µM	> 100 µM	> 100 µM	> 100 µM	7.76 µM	12.8 µM
O=C(CCCCCCSc1nc(-c2ccc(Cl)cc2)cc(-c2ccc(Cl)cc2)n1)NO	1.6 µM	6.24 µM	1.32 µM	4.19 µM	0.735 µM	2.42 µM	4.02 µM	18.4 µM	1.7 µM	7.49 µM	1.76 µM	> 50 µM	13.3 µM	> 50 µM	2.15 µM	1.44 µM
CCCCCC/C=C\CCCCCCCCCC1=CC(=O)C=C(OC)C1=O	–	14.4 µM	–	16 µM	–	14 µM	–	18.3 µM	–	19.3 µM	–	11.1 µM	18.4 µM	15.3 µM	–	–
CC(=O)[O][Hg][c]1ccccc1	0.234 µM	0.644 µM	1.37 µM	2.68 µM	1.23 µM	2.54 µM	0.401 µM	1.27 µM	1.14 µM	2.64 µM	0.277 µM	0.877 µM	2.09 µM	0.684 µM	0.732 µM	0.197 µM
Cn1c(=S)c2[nH]c(SCCN3CCCC3)nc2n(C)c1=O	–	> 100 µM	–	> 100 µM	–	> 100 µM	–	> 100 µM	–	> 100 µM	–	> 100 µM	> 100 µM	> 100 µM	–	–
O=C(OCc1ccc2c(Cl)cc(Cl)c(O)c2n1)c1cc2ccccc2[nH]1	0.285 µM	0.939 µM	3.6 µM	13.3 µM	0.164 µM	0.331 µM	1.47 µM	3.25 µM	1.5 µM	2.97 µM	0.217 µM	0.517 µM	1.52 µM	–	0.422 µM	–
CCOC(=O)Nc1ccc(-c2nc(-c3cccc(OC)c3)c(-c3ccnc(Br)c3)[nH]2)cc1	2.77 µM	> 100 µM	3.9 µM	> 100 µM	2.19 µM	7.75 µM	2.58 µM	6.69 µM	3.26 µM	> 100 µM	1.68 µM	5.45 µM	> 100 µM	7.18 µM	3.27 µM	2.13 µM
Nc1nnc(Cn2c(-c3ccccc3)nc3ccc(Br)cc3c2=O)s1	18.1 µM	77.6 µM	> 100 µM	> 100 µM	> 100 µM	> 100 µM	> 100 µM	> 100 µM	> 100 µM	> 100 µM	31.6 µM	> 100 µM	> 100 µM	> 100 µM	36.2 µM	> 100 µM
COc1ccc2c(c1)CCC1=CC3(CCC12C)SCCS3 (configuration not stated)	–	> 10 µM	–	> 10 µM	–	–	–	–	–	> 10 µM	–	> 10 µM	> 10 µM	> 10 µM	–	–
NC(=O)/C=C/NC(=O)/C=N\O	–	> 100 µM	–	> 100 µM	–	> 100 µM	–	–	–	> 100 µM	–	> 100 µM	> 100 µM	> 100 µM	–	–
COc1ccc(-c2cc(=O)c3c(O)cc(C)cc3o2)cc1OC	–	> 100 µM	–	> 100 µM	–	> 100 µM	–	> 100 µM	–	> 100 µM	–	> 100 µM	> 100 µM	> 100 µM	–	–
C#Cc1cccc(Nc2nc3ccc([N+](=O)[O-])cc3nc2Nc2cccc(C#C)c2)c1	0.313 µM	1.29 µM	0.257 µM	0.862 µM	0.321 µM	1.14 µM	0.26 µM	0.742 µM	0.313 µM	1.3 µM	0.197 µM	0.716 µM	0.807 µM	1.07 µM	0.281 µM	0.266 µM
COc1ccc2c(c1)[n+](=O)c(C(=O)/C=C/c1cc(OC)c(OC)c(OC)c1)c(C)n2[O-]	28.2 µM	> 100 µM	21.3 µM	51.7 µM	28 µM	78.6 µM	33.7 µM	> 100 µM	8.15 µM	40.4 µM	29.1 µM	> 100 µM	35.2 µM	88.4 µM	13.5 µM	18 µM
